Assay results reported in publication PMC3985615 (Journal of medicinal chemistry, 2013).

Columns and labels:
[1] = molecular target: Hsp90β (Homo sapiens, UniProt P08238); assay: FP saturation binding assay of probes, Hsp90β; details: mP at saturation minus mP of probe alone
[2] = molecular target: Hsp90α (Homo sapiens, UniProt P07900); assay: FP saturation binding assay of probes, Hsp90α; details: mP at saturation minus mP of probe alone
[3] = system: Hsp90 in SKBr3 lysate; assay: FP saturation binding of probes to Hsp90 in cancer cell lysate; design: species or system human; details: 4 °C
[4] = molecular target: Grp94 (Canis lupus familiaris, UniProt P41148); assay: FP saturation binding assay of probes, Grp94; design: species or system canine; details: for assay window, Grp94: mP at saturation minus mP of probe alone
[5] = system: Trap-1; details: cited from earlier work
[6] = molecular target: T1, Trap-1 (Homo sapiens, UniProt Q12931); details: from FP competition IC50, Table 1
T1 sequence (Q12931 60-704): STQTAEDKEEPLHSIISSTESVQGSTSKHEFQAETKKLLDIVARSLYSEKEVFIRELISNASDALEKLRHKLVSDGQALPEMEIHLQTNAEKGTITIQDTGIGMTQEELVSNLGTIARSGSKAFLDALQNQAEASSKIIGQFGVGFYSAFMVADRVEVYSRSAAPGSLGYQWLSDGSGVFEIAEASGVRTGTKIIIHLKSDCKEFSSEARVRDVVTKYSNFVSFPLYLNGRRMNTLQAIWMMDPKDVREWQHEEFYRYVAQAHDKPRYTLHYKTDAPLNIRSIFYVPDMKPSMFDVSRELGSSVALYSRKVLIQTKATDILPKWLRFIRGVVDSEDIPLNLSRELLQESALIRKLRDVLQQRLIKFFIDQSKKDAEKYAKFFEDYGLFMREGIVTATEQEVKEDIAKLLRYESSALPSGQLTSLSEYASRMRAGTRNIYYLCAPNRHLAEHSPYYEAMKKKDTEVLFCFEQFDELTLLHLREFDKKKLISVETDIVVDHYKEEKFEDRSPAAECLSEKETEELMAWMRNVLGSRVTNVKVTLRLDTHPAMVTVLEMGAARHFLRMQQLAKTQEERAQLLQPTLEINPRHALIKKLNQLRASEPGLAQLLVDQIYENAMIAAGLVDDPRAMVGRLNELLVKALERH

Chain of Grp94 (P41148 22-804): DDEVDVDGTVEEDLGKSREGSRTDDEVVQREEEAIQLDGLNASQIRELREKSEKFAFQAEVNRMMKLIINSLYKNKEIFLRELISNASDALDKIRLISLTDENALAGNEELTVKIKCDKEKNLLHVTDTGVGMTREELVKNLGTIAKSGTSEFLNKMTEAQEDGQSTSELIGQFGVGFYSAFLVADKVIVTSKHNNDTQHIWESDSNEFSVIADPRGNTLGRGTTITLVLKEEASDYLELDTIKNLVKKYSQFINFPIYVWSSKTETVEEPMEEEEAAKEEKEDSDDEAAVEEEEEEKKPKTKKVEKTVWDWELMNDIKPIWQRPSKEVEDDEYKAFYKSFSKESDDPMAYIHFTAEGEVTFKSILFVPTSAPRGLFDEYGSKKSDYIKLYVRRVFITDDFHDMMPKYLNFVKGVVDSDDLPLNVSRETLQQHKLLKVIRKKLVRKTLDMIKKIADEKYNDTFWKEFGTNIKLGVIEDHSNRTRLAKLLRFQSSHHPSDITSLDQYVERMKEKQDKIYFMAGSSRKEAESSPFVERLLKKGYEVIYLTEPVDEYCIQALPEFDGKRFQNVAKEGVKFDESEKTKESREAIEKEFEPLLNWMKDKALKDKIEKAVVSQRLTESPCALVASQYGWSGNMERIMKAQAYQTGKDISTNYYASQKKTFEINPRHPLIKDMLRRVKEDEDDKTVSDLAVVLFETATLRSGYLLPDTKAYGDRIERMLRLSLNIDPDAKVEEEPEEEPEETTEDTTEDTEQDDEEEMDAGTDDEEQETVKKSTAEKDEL
Chain of Hsp90β (P08238 whole entry): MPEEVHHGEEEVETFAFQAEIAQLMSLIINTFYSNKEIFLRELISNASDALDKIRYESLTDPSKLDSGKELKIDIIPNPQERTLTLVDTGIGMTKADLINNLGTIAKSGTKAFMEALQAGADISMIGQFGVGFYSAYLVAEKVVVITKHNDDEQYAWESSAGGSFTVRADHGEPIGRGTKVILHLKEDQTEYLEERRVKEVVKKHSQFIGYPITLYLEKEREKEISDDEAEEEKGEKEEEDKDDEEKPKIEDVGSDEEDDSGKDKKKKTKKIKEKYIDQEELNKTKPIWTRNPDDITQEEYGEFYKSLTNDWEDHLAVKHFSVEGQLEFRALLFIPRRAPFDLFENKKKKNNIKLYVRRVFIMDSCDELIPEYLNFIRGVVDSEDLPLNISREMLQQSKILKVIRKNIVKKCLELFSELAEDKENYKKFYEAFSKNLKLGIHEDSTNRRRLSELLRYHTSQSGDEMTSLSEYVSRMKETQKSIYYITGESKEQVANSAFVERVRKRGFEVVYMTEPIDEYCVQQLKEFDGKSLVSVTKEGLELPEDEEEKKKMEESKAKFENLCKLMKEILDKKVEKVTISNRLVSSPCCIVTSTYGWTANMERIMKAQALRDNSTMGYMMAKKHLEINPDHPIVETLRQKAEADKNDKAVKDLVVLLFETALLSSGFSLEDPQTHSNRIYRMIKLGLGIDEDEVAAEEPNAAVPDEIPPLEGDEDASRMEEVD

Nc1ncnc2c1nc(Sc1cc3c(cc1I)OCO3)n2CCCNC(=S)Nc1ccc(-c2c3ccc(=O)cc-3oc3cc(O)ccc23)c(C(=O)O)c1 [16a]
assay window, Hsp90β [1]: > 150 mP | assay window, Hsp90α [2]: > 150 mP | time binding remained stable [3]: more than 24 h | time to reach binding equilibrium with Hsp90 [3]: ≤ 8 h | assay window, Grp94 [4]: > 150 mP

Nc1ncnc2c1ncn2[C@@H]1O[C@H](COP(=O)(O)OP(=O)(O)OP(=O)(O)O)[C@@H](O)[C@H]1O [ATP]
reported greater affinity of Trap-1 than of Hsp90 [5]: approximately 10 fold | Kd ([5]; read-out: reported binding affinity for Trap-1): 34.3 µM

COC1=C2C[C@@H](C)C[C@H](OC)[C@H](O)[C@@H](C)/C=C(\C)[C@H](OC(N)=O)[C@@H](OC)/C=C\C=C(/C)C(=O)NC(=CC1=O)C2=O [compound 1, Geldanamycin]
decrease in binding affinity for Trap-1 compared to Hsp90 [6]: 25 fold

C=CCNC1=C2C[C@@H](C)C[C@H](OC)[C@H](O)[C@@H](C)/C=C(\C)[C@H](OC(N)=O)[C@@H](OC)/C=C\C=C(/C)C(=O)NC(=CC1=O)C2=O [compound 2, 17-allyl-17-demethoxygeldanamycin]
loss of affinity for Trap-1 vs Hsp90 [6]: ~2 log

COc1c(C)cnc(Cn2cnc3c(Cl)nc(N)nc32)c1C [compound 3]
decrease in binding affinity for Trap-1 compared to Hsp90 [6]: 5 fold

CC(C)NCCCn1c(Sc2cc3c(cc2I)OCO3)nc2c(N)ncnc21 [compound 4]
decrease in binding affinity for Trap-1 compared to Hsp90 [6]: 5 fold

CN(C)c1cc2c(cc1Sc1nc3c(N)nccc3n1CCNCC(C)(C)C)OCO2 [compound 5]
decrease in binding affinity for Trap-1 compared to Hsp90 [6]: 50 fold | loss of affinity for Trap-1 vs Hsp90 [6]: ~2 log

CCNC(=O)c1noc(-c2cc(C(C)C)c(O)cc2O)c1-c1ccc(CN2CCOCC2)cc1 [compound 7]
decrease in binding affinity for Trap-1 compared to Hsp90 [6]: 2 fold

CC(C)N(CCCn1c(Sc2cc3c(cc2I)OCO3)nc2c(N)ncnc21)C(=S)Nc1ccc(-c2c3ccc(=O)cc-3oc3cc(O)ccc23)c(C(=O)O)c1 [compound 12]
preference for Hsp90α, Hsp90β and Trap-1 over Grp94 ([4]; from apparent Kd, saturation binding): 1 log | assay window, Grp94 [4]: less than 100 mP
